The results in this text go back to paper PMC9782626, “Copper(II) Complexes of 5–Fluoro–Salicylaldehyde: Synthesis, Characterization, Antioxidant Properties, Interaction with DNA and Serum Albumins” (Molecules, 2022).

One data set in a line: Solubility in solvents. Type of data set: physicochemical.
The target of data set [1] is T1, human serum albumin (HSA) (Homo sapiens, UniProt P02768).
T1 construct: purchased Sigma–Aldrich Co
The experiment in a line: Albumin binding by tryptophan fluorescence quenching (HSA). Particulars: for ΔΙ/Ιο, quenching of the HSA fluorescence: HSA 3 μM, λex 295 nm; for % relative HSA fluorescence emission intensity I/Io remaining (% of initial): final value, pH 7.0; for HSA-binding constant K: Scatchard equation; for HSA-quenching constant kq: from Stern–Volmer plots, τo 10^-8 s. From the text: Serum albumins are among the important proteins of the circulatory system. Their main role is to carry drugs and other bioactive small molecules through the bloodstream. BSA and HSA are structurally homologous albumins, having two and one tryptophan residues, respectively. The tryptophan residues of both albumins are responsible for the intense fluorescence emission band with λem,max = 342 nm for BSA and 350 nm for HSA, respectively, when their solutions are excited at 295 nm. […] The inner-filter effect was calculated with Equation (S4) and it was found too low to affect the measurements.
When the compounds were added to a solution of the albumins (3 μM), a significant quenching of the BSA (λem = 342 nm) and HSA (λem = 350 nm) fluorescence emission bands was observed (Figure 7) which was more pronounced in the case of BSA (Table 7 and Figure 8). […] The observed quenching may be ascribed to changes in the tryptophan environment of SA resulting from possible denaturation of their secondary structure, induced by the binding of the complexes to the albumins. […]
Io =1+ k τ [Q] =1+ K [Q] […]
S3Albumin -binding studies
In order to investigate if the compounds can bind to carrier proteins like serum albumins, we carried out albumin binding study by tryptophan fluorescence quenching experiments using bo vine serum albumin (BSA, 3 μM) in buffer (containing 15 mM trisodium citrate and 150 mM NaCl at pH 7.0). The quenching of the emission intensity of tryptophan residues of BSA at 343 nm was monitored using the co mpounds as que ncher s with increasing concentration [S4]. The fluo rescence emission spectra of the compounds were also recorded with λex = 295 nm. No fluorescence emission band was recorded and thus it was not related to the compounds . The influence of the inner-filter effect [S6] on the measurements wa s evaluated by equation S4.
Where Icorr = corrected intensity, Imeas = the measured intensity, c = the concentration of the quencher, d = the cuvette (1 cm), ε (λexc ) and ε(λe m) = the ε of the quencher at the excitation and the emission wavelength, respectively, as calculated from the UV-vis spectra of the […]
The Stern-Volmer and Scatchard graphs are used to study the interaction of the compounds with serum albumins. According to Stern-Volmer quenching equation (eq.
S2), where Io = the initial tryptophan fluorescence intensity of SA, I = the tryptophan fluorescence intensity of SA after the addition of the quencher, kq = the quenching […]
constant, KSV = the Stern-Volmer constant, τo = the average lifetime of SA without the quencher, and, tak ing as fluorescence lifet ime (τo) of tryptophan in SA at around 10-8 s [S 4] , KSV (in M -1) can be obtained by the slope of the diagram Io/I versus [compound] (Stern-Volmer plots), and subsequently the quenching (kq, in M -1s-1) may be calculated from eq.
From the Scatchard equation (eq. S5): […]
where n is the number of binding sites per albumin and K is the SA-binding constant (K, in M -1) is calculated from the slope in plots (ΔI/Io)/[complex] versus ΔI/Io and n is given by the ratio of y intercept to the slope [S7].
S1 Kontogiorgis, C.; Hadjipavlou–Lit ina, D. Biological Evaluat ion of Several Coumarin Derivatives Designed as Possible Anti–inflammatory/Antioxidant Agents. J. Enz. Inhib.
S2 Ruch, R.J.; Cheng, C.; Klaunig, J.E. Prevention of cytotoxicity and inhibition of intercellular communication by antioxidant catechins isolated from Chinese green tea.
S3 Wolfe, A.; Shimer, G.; Meehan, T. Polycyclic Aromatic Hydrocarbons Physically Intercalate into Duplex Regions of Denatured DNA. Biochemistry 1987, 26, 6392–6396.
S4 Lakowicz, J.R. Principles of Fluorescence Spectroscopy , 3rd ed.; Plenum Press: New […]
S5 Heller, D.P.; Greenstock, C.L. Fluorescence lifetime analysis of DNA intercalated ethid ium bromide and quench ing by free dye. Biophys. Chem.1994,50, 305–312.
S6 Stella, L.; Capodilupo, A.L.; Bietti, M. A reassessment of the association between […]
azulene and [60]fullerene. […]

T1 sequence (P02768 25-609): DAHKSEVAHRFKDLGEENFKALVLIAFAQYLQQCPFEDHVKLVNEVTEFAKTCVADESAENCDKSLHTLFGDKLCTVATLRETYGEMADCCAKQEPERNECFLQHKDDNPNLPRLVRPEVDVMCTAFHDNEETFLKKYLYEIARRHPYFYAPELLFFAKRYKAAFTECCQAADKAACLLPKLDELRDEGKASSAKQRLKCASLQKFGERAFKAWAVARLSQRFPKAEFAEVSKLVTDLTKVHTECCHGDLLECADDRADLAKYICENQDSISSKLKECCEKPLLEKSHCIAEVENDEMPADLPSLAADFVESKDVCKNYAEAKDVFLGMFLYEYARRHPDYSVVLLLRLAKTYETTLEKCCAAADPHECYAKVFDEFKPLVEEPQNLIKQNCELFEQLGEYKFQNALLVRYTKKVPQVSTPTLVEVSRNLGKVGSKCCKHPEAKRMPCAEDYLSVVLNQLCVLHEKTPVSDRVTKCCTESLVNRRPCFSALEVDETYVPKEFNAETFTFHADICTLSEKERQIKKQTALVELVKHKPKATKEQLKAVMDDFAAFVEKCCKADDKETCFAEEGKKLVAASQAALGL

For `O=Cc1cc(F)ccc1[O-].O=Cc1cc(F)ccc1[O-].[Cu+2]` [Complex 1, [Cu(5–F–salo)2]], in “Solubility in solvents”, the “Solubility in DMSO and DMF” value is listed as “soluble”. In addition, in data set [1], the “ΔΙ/Ιο, quenching of the HSA fluorescence” value is on record as 61.3%; the “% relative HSA fluorescence emission intensity I/Io remaining (% of initial)” value is reported as 38.7%; the “HSA-binding constant K” value is 1.58 (±0.09) × 10^5 M^−1; the HSA-quenching constant kq is on record as 4.37 (±0.18) × 10^12 M^−1 s^−1.

As to `O=Cc1cc(F)ccc1[O-].[Cl-].[Cu+2].c1ccc(Nc2ccccn2)nc1` [Complex 2, [Cu(5–F–salo)(bipyam)Cl]], in the data set “Solubility in solvents”, the “Solubility in DMSO and DMF” value is given as “soluble”; the “Solubility in MeOH” value is reported as “partially soluble”. Moreover, in data set [1], the “ΔΙ/Ιο, quenching of the HSA fluorescence” value is given as 62.7%; the “% relative HSA fluorescence emission intensity I/Io remaining (% of initial)” value was 37.3%; the “HSA-binding constant K” value is reported as 5.09 (±0.29) × 10^5 M^−1; the HSA-quenching constant kq was 6.27 (±0.21) × 10^12 M^−1 s^−1.

As for `CO.Cc1ccc2ccc3ccc(C)nc3c2n1.O=Cc1cc(F)ccc1[O-].[Cl-].[Cu+2]` [Complex 3, [Cu(5–F–salo)(neoc)Cl].CH3OH], in the data set “Solubility in solvents”, the “Solubility in DMSO and DMF” value was “soluble”; the “Solubility in MeOH” value is on record as “partially soluble”. For the same compound, in data set [1], the “ΔΙ/Ιο, quenching of the HSA fluorescence” value was 68.5%; the “% relative HSA fluorescence emission intensity I/Io remaining (% of initial)” value amounted to 31.5%; the “HSA-binding constant K” value is 7.16 (±0.40) × 10^5 M^−1; the HSA-quenching constant kq is 1.25 (±0.05) × 10^13 M^−1 s^−1.

As for `O=Cc1cc(F)ccc1[O-].O=[N+]([O-])[O-].[Cu+2].c1cnc2c(c1)ccc1cccnc12` [Complex 4, [Cu(5–F–salo)(phen)(NO3)]], the “Solubility in DMSO and DMF” value in the data set “Solubility in solvents” is “soluble”. In addition, in data set [1], the “ΔΙ/Ιο, quenching of the HSA fluorescence” value is listed as 74.6%; the “% relative HSA fluorescence emission intensity I/Io remaining (% of initial)” value worked out at 25.5%; the “HSA-binding constant K” value is recorded as 1.70 (±0.09) × 10^6 M^−1; the HSA-quenching constant kq was 8.63 (±0.33) × 10^12 M^−1 s^−1.

In the case of `O=Cc1cc(F)ccc1[O-].O=[N+]([O-])[O-].[Cu+2].c1ccc(-c2ccccn2)nc1` [Complex 5, [Cu(5–F–salo)(bipy)(NO3)]], in data set [1], the “ΔΙ/Ιο, quenching of the HSA fluorescence” value came out at 63.0%; the “HSA-binding constant K” value is on record as 1.31 (±0.05) × 10^6 M^−1; the HSA-quenching constant kq is recorded as 3.01 (±0.10) × 10^12 M^−1 s^−1.
